Experimental data: paper PMC11088877, “AMP-activated protein kinase can be allosterically activated by ADP but AMP remains the key activating ligand” (Biochemical Journal, 2024)
Several values for one entry are separate records, joined by “and”; a condition that tells them apart may be missing. Equal values may be shown once. Read-outs that look alike come from different tables or passages of the source.

Legend:
[1] = biological target: T1, human α2β2γ1 complex, CBS4 mutant (I312G) (Homo sapiens, UniProt P54619+P54646, I312G); assay: AMPK activation and Thr172 phosphorylation by the LKB1 complex, CBS4 mutant; format: biochemical; conditions: 300 µM nucleotide, 200 µM ATP
T1 construct: made in house; host or cells: Escherichia coli
T1 sequence (P54619 whole entry I312G): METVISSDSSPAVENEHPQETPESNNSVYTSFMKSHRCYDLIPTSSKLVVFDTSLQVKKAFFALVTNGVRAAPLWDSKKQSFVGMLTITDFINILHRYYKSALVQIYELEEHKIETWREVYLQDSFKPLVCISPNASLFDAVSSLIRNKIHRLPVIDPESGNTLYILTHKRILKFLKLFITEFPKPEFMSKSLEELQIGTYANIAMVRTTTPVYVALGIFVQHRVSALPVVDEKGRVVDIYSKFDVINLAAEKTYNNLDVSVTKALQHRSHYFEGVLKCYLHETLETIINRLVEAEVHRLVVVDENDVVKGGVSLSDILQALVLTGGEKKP
T1 sequence (P54646 whole entry): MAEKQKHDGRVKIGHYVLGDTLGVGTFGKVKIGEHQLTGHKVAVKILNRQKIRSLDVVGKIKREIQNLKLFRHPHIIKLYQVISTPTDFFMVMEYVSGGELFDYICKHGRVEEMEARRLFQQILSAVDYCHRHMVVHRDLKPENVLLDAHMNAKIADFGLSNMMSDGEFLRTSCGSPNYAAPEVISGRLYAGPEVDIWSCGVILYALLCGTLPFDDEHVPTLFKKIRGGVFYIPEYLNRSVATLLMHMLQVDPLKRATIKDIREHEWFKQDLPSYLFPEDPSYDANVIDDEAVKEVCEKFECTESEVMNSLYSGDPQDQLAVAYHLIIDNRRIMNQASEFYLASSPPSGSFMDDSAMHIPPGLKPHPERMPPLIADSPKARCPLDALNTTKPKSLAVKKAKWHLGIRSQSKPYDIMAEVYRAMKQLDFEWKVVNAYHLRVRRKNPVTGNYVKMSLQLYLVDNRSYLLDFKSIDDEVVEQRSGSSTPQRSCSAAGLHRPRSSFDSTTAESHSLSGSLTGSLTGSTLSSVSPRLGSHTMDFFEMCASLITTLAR
T1 sequence (O43741 whole entry partner): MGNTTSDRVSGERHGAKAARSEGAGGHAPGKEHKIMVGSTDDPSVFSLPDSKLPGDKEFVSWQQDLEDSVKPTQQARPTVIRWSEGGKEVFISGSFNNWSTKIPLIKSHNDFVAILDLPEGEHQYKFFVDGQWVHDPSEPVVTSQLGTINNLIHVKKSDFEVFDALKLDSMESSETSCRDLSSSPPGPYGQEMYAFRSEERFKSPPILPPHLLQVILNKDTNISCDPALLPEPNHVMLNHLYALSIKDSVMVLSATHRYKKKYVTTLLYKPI
Procedure: The relative roles of the three CBS sites in the other two mechanisms of activation of AMPK by AMP or ADP, i.e. promotion of Thr172 phosphorylation by LKB1, and protection against Thr172 dephosphorylation by protein phosphatases, have not been examined previously. As expected, incubation of the α2β2γ1 AMPK complex with a fixed, limiting amount of purified LKB1:STRADα:MO25α complex in the presence of 200 µM Mg.ATP^2− caused a large degree of activation (Figure 5A) and phosphorylation (Figure 5B) of AMPK (unphosphorylated α2β2γ1 complex), which were stimulated more than 2-fold by 300 µM AMP and 1.6-fold by 300 µM ADP.
Figure 5. Effects of AMP or ADP on AMPK activation and Thr172 phosphorylation by the LKB1:STRADα:MO25α complex. Unphosphorylated human α2β2γ1 complexes (WT, or with L129D/V130D, V276G/L277G or I312G mutations affecting CBS1, CBS3 or CBS4 respectively) were incubated with ATP and a fixed concentration of the LKB1:STRADα:MO25α complex in the presence or absence of AMP or ADP (both 300 µM), as described in the Materials and methods section. After the incubation aliquots were withdrawn for (A) AMPK assay or (B) Western blots. […] For (B), due to a limit on the number of lanes that could be run on one gel, single replicates from the triplicate assays were analysed. […]

[2] = biological target: T2, human α2β2γ1 complex, CBS3 mutant (V276G/L277G) (Homo sapiens, UniProt P54619+P54646, L277G/V276G); assay: Allosteric activation of CBS3 mutant human α2β2γ1 AMPK complex; format: biochemical
T2 construct: made in house; host or cells: Escherichia coli
T2 sequence (P54619 whole entry V276G/L277G): as the sequence (P54619 whole entry I312G) above, with V276G, L277G, G312I counted along it
T2 sequence (P54646 whole entry): as the sequence (P54646 whole entry) above
T2 sequence (O43741 whole entry partner): as the sequence (O43741 whole entry partner) above
From the text: To study allosteric activation with a more well-defined AMPK complex, and to study the effects of mutations in individual adenine nucleotide-binding sites on the γ subunit, we expressed a human α2β2γ1 complex in Escherichia coli and purified it utilizing the polyhistidine tag at the N-terminus of the α2 subunit. […] However, it had not been co-expressed with an N-myristoyl transferase so would not have been N-myristoylated on the β2 subunit. The complex was expressed not only with the WT γ1 sequence but also with mutations affecting hydrophobic residues previously shown to be involved in binding of the adenine moieties of nucleotides at CBS1 (L129D/V130D), CBS3 (V276G/L277G) and CBS4 (I312G). All four complexes co-purified as heterotrimeric 1:1:1 complexes as expected, and were phosphorylated and activated equally well either by CaMKK2 or the LKB1: STRADα:MO25α complex (Supplementary Figure S2). For the studies described below we phosphorylated Thr172 using a GST-tagged CaMKK2 and repurified AMPK using size exclusion chromatography and a glutathione-Sepharose column, which remove CaMKK2.
Figure 4. Allosteric activation of WT and mutant human α2β2γ1 AMPK complex by AMP and ADP at three different concentrations of ATP. The α2β2γ1 complex was phosphorylated on Thr172 prior to assay using CaMKK2. The γ1 subunit was either (A/E): WT; (B/F): a CBS1 mutant (L129D/V130D); (C/G): a CBS3 mutant (V276G/L277G); (D/H): a CBS4 mutant (I312G). Results are means of duplicate assays ± SD; error bars are not shown if they were smaller than the symbols used for mean values. Assays and curve fitting were as in Figure 1 at either 0.2 mM (left panels) or 5 mM (right panels) ATP. Best-fit values for all parameters used to generate the curves are listed in Supplementary Table S1.
Sources of antibodies were as described: pThr172 (AMPK-α: Cell Signaling Technologies, Danvers, MA, U.S.A., Cat# 2535), AMPK-α2 [22]. Rat liver AMPK was purified as described previously. Plasmid encoding human (His)6-tagged AMPK (α2β2γ1, bacterially expressed) generated as in [23], was a gift from AstraZeneca, Cambridge, U.K. The L129D/V130D (CBS1), V276G/L277G (CBS3) and I312G (CBS4) mutations in the α2β2γ1 complex were generated using the Quikchange II site-directed mutagenesis kit (Agilent Technologies) and confirmed by DNA sequencing. Human GST-tagged α2 kinase domain (1–310), LKB1:STRAD-α:MO25-α complexes, GST-tagged CaMKK2 [26], and PPM1A (PP2Cα) were produced as described. Bacterially expressed heterotrimers were activated by phosphorylation of Thr172 by GST-tagged CaMKK2 in the presence of ATP, and CaMKK2 was subsequently removed by passage through glutathione-Sepharose. Human GST-tagged α2 kinase domain was activated in a similar manner except that human (His)6-tagged LKB1:STRAD-α:MO25-α complex was used and removed after activation via passage through a His-Trap column. Recombinant human 5′-nucleotidase, CD73, Cat # 5795-EN-01, was from R&D systems (Minneapolis, MN, U.S.A.).
AMPK assays measured the transfer of radioactivity from [γ-^33P]ATP to a peptide substrate, which was separated from unreacted ATP by binding to P81 paper. This assay was described previously except that we used [γ-^33P] rather than [γ-^32P]ATP. In some assays (specified in Figure legends) the concentration of ATP was increased from 0.2 to 1 or 5 mM ATP, with MgCl2 concentrations maintained at a constant 4.8 mM excess above the concentration of ATP [19]. Where allosteric activation by AMP or ADP was being studied, we used the SAMS peptide as substrate. For all other assays the AMARA peptide was used.

[3] = biological target: bacterially expressed AMPK heterotrimers (γ subunit CBS sites); conditions: cited from earlier work
[4] = in the presence of Mg2+ and staurosporine, read-out: estimated Kd at the CBS3 site

SMILES	effect of nucleotide on activation/phosphorylation by LKB1 in the mutant [1]	Activation (maximal) ([2]; α2β2γ1 CBS3 mutant, 0.2 mM ATP)	IC50 ([2]; α2β2γ1 CBS3 mutant, 0.2 mM ATP)	Activation (maximal) ([2]; α2β2γ1 CBS3 mutant, 5.0 mM ATP)	IC50 ([2]; α2β2γ1 CBS3 mutant, 5.0 mM ATP)	Kd [3, 4]	increase of EC50 relative to WT ([2]; α2β2γ1 CBS3 mutant vs WT, 5 mM ATP)	EC50 ([2]; α2β2γ1 CBS3 mutant, 0.2 mM ATP)	IC50/EC50 ([2]; α2β2γ1 CBS3 mutant, 0.2 mM ATP)	activation over basal remaining ([2]; α2β2γ1 CBS3 mutant, 0.2 mM ATP)	EC50 ([2]; α2β2γ1 CBS3 mutant, 5.0 mM ATP)	IC50/EC50 ([2]; α2β2γ1 CBS3 mutant, 5.0 mM ATP)	Kd ([3]; various bacterially expressed heterotrimers, read-out: Kd, AMP-binding site of high affinity)	Kd ([3]; various bacterially expressed heterotrimers, read-out: Kd, AMP-binding site of low affinity)
Nc1ncnc2c1ncn2[C@@H]1O[C@H](COP(=O)(O)OP(=O)(O)O)[C@@H](O)[C@H]1O [ADP]	abolished	did not cause allosteric activation and none	500 µM	essentially abolished allosteric activation	7600 µM	12 to 24 µM								
Nc1ncnc2c1ncn2[C@@H]1O[C@H](COP(=O)(O)O)[C@@H](O)[C@H]1O [AMP]	abolished	1.2 (1.1-1.2) fold	6100 µM	2.0- to 2.5 fold and 2.3 (2.1-2.7) fold	40000 µM	1 to 2 µM	10- to 20 fold	2.9 µM	2100	20%	370 µM	110	2 to 4 µM	40 to 400 µM
